From US11207312B2, “Metallo-beta-lactamase inhibitors and methods of use thereof” (priority 2017, dated 2021)

Key:
VIM-2 = VIM-2 (Escherichia coli, UniProt Q5U7L7); assay: biochemical; conditions: CCF2-FA fluorescence assay; read-out: VIM2 IC50
[1] = tested on: P. aeruginosa MB9798 (efflux+, IMP-1 plasmid); conditions: for MB9798 MITC95 P. aeruginosa uM Efflux WT: efflux + (MB9798) strain, imipenem at 2 μg/mL, in the presence of a class A, C, D serine β-lactamase inhibitor closely related to relebactam; for Efflux ratio: fold difference between efflux+ (MB9798) and efflux− (MB9799) strains
Procedure, shortened: (§1)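 PAO1-derived isogenic pair (oprD+, inducible AmpC), efflux+ MB5919 or efflux− MB5890 parent, carrying an electroporated IMP-1 plasmid from a clinical isolate. Microbroth MIC with fixed imipenem and/or ceftazidime (usually CLSI breakpoint) plus fixed class A/C inhibitor; MBL inhibitor serially titrated, concentration restoring susceptibility recorded.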

IMP-1 = IMP-1 (Serratia marcescens, UniProt P52699); assay: biochemical; conditions: CCF2-FA fluorescence assay, 2 hours at 25° C.; read-out: IMP1 IC50
Procedure, shortened: (§2)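 Buffer 100 mM KH2PO4 pH 7, 0.005% Tween-20, 10 μM ZnSO4. NDM-1 1 pM, IMP-1 2 pM, VIM-1 30 pM final; CCF2-FA 1.25 μM. Cpd 20–0.00063 μM, 2 h, 25° C. Ex 405/Em 460 nm; IC50 via 4-parameter curve.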

VIM-1 = VIM-1 (Pseudomonas aeruginosa (strain ATCC 15692 / DSM 22644 / CIP 104116 / JCM 14847 / LMG 12228 / 1C / PRS 101 / PAO1), UniProt A0A0F7KYQ8); assay: biochemical; conditions: CCF2-FA fluorescence assay, 2 hours at 25° C.; read-out: VIM1 IC50
Procedure, shortened: as §2

[2] = tested on: P. aeruginosa MB9799 (efflux-, IMP-1 plasmid); assay type: cell-based, Pseudomonas aeruginosa; conditions: efflux − (MB9799) strain; imipenem at 2 μg/mL; in the presence of a class A, C, D serine β-lactamase inhibitor closely related to relebactam
Procedure, shortened: as §1

[3] = tested on: Klebsiella pneumoniae expressing VIM-1 (IHMA599644); assay type: cell-based; conditions: with imipenem 1 μg/ml; 95% inhibition of bacterial growth
Procedure, shortened: (§3)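 Colonies from sheep-blood agar plates are resuspended in saline, then diluted 1:100 in 1.1× CAMHB. Bacteria receive imipenem (1 μg/ml) and test compound, then incubate 22–24 h at 35 °C. Potentiation is reported as MITC95 from absorbance.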

[4] = tested on: Escherichia coli expressing NDM-1 (CLB30016); assay type: cell-based; conditions: with imipenem 1 μg/ml; 95% inhibition of bacterial growth
Procedure, shortened: as §3

[5] = tested on: Serratia marcescens expressing IMP-1 (CL5741); assay type: cell-based; conditions: with imipenem 1 μg/ml; 95% inhibition of bacterial growth
Procedure, shortened: as §3

NDM-1 = NDM-1 (Klebsiella pneumoniae, UniProt C7C422); assay: biochemical; assay type: biochemical; conditions: CCF2-FA fluorescence assay, 2 hours at 25° C.
Procedure, shortened: as §2

Sequence of IMP-1 (P52699 whole entry, looked up, species assumed): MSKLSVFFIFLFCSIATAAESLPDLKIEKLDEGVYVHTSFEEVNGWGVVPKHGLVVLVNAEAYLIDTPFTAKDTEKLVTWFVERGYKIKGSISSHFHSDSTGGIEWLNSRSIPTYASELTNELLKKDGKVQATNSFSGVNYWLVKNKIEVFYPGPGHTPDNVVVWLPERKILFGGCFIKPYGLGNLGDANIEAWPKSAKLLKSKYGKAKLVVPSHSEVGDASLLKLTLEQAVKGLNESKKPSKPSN
Sequence of NDM-1 (C7C422 whole entry, looked up, species assumed): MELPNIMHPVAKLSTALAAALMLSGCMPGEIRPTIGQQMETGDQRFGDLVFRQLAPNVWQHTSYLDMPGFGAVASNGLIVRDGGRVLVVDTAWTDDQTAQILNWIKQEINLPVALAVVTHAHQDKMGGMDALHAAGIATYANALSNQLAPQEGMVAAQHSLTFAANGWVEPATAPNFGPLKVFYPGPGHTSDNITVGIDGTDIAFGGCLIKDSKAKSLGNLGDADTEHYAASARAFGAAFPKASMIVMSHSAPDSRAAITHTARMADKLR

Compound	IC50 (VIM-2) [nM]	MB9798 MITC95 P. aeruginosa uM Efflux WT [1] [µM]	Efflux ratio [1]	IC50 (IMP-1) [nM]	IC50 (VIM-1) [nM]	MB9799 MITC95 P. aeruginosa uM Efflux Mutant [2] [µM]	IHMA599644 K. pneumoniae MITC95 VIM [3] [µM]	CLB30016 E. coli MITC95 NDM [4] [µM]	CL5741 S. marcescens MITC95 IMP [5] [µM]	IC50 (NDM-1) [nM]
NS(=O)(=O)c1c(S(=O)(=O)N[C@@H]2CCNC2)ccc(N2CCC(CCF)CC2)c1-c1nnn[nH]1 [Example 87, 4-[4-(2-fluoroethyl)piperidin-1-yl]-N1-[(3R)-pyrrolidin-3-yl]-3-(1H-tetrazol-5-yl)benzene-1,2-disulfonamide]	0.49	12.50	8.00	0.24	0.12	1.56	3.13	1.56	3.13	0.16
C[C@H](CN)NS(=O)(=O)c1ccc(N2CCC(CN)CC2)c(-c2nnn[nH]2)c1S(N)(=O)=O [Example 36, (R)-4-(4-(aminomethyl)piperidin-1-yl)-N1-(1-aminopropan-2-yl)-3-(1H-tetrazol-5-yl)benzene-1,2-disulfonamide]	2.6	0.91	1.40	1.84	0.1	0.65	1.30	0.65	1.30	0.45
NCCOC1CCN(c2ccc(S(=O)(=O)NC[C@H](O)CN)c(S(N)(=O)=O)c2-c2nn[nH]n2)CC1 [Example 209, (R)—N1-(3-amino-2-hydroxypropyl)-4-(4-(2-aminoethoxy)piperidin-1-yl)-3-(2H-tetrazol-5-yl)benzene-1,2-disulfonamide]	3.32	0.78	1.00	1.69	0.12	0.78	1.56	0.78	1.56	0.96
NCC1CCN(c2ccc(S(=O)(=O)NC[C@@H](N)CN)c(S(N)(=O)=O)c2-c2nn[nH]n2)CC1 [Example 200, (S)-4-(4-(aminomethyl)piperidin-1-yl)-N1-(2,3-diaminopropyl)-3-(2H-tetrazol-5-yl)benzene-1,2-disulfonamide]	8.28	50.00	1.00	4.57	0.51	50.00	3.13	0.78	1.56	3.1
NC[C@@H](O)CNS(=O)(=O)c1ccc(N2CCC3(CC2)CC3N)c(-c2nn[nH]n2)c1S(N)(=O)=O (stereo partly drawn) [Example 12]	17.6	1.56	2.00	4.08	1.48	0.78	1.56	0.78	1.56	1.51
NC1CCN(c2ccc(S(=O)(=O)N[C@@H]3CCNC3)c(S(N)(=O)=O)c2-c2nn[nH]n2)C(=O)C1 (stereo partly drawn) [Example 158, 4-(4-amino-2-oxopiperidin-1-yl)-N1-((R)-pyrrolidin-3-yl)-3-(2H-tetrazol-5-yl)benzene-1,2-disulfonamide]	22.8	6.25	2.00	88.4	1.22	3.13	0.78	0.10	1.56	7.19
